The target of assay [1] is T1, 5-hydroxytryptamine receptor 1A (Rattus norvegicus, UniProt P19327).
T1 sequence (P19327 whole entry): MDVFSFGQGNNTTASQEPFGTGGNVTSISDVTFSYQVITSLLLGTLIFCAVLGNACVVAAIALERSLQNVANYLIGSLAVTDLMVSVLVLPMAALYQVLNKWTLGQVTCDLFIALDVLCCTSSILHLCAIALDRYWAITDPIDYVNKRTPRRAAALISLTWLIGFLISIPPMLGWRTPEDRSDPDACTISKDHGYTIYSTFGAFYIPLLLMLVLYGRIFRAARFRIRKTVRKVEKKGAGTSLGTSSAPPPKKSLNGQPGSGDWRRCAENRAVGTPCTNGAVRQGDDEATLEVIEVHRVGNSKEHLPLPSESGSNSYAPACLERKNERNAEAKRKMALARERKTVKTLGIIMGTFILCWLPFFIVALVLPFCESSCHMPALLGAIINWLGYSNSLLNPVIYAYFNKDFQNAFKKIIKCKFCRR
The assay can be described thus: biochemical.
Description: In vitro affinity against 5-hydroxytryptamine 1A receptor using [3H]-8-OH-DPAT in rat hippocampus

For assay [2], the species on record is Rattus norvegicus.
Assay [3] is filed under the species Rattus norvegicus. This is another data set of the same source.
Description: Ability to counteract the 8-OH-DPAT (1 mg/kg sc)-induced Hypothermia in rats (n=4) and evaluated for the decrease in body temperature (degrees Celsius) at 10(micro mol/kg)
For assay [4], the species on record is Rattus norvegicus. This is another data set of the same source.
Description: Ability to counteract the 8-OH-DPAT (1 mg/kg sc)-induced Hypothermia in rats (n=4) and evaluated for the decrease in body temperature (degrees Celsius) at 1.0(micro mol/kg)
For a further assay, the species on record is Cavia porcellus. The assay can be described thus: tissue or blood. Conditions: Ileum, read-out: pA2 (converted).
The species entered for assay [5] is Rattus norvegicus. The source holds these as a separate data set.
Description: Ability to counteract the 8-OH-DPAT (1 mg/kg sc)-induced Hypothermia in rats (n=4) and evaluated for the decrease in body temperature (degrees Celsius) at 0.1(micro mol/kg)

Description for Cavia porcellus: Ability to antagonize the 8-OH-DPAT-induced contractions of a strip of guinea pig ileum tissue

For orientation: IC50 means the concentration that inhibits the measured activity by half. A high value points to weaker potency. `COc1ccccc1N(C)C1CCN(CCN(C(=O)C2CCCCC2)c2ccccn2)CC1` registered a half-maximal inhibitory concentration (IC50) in assay [1] of 1290 nM. This lies in the single-digit micromolar range.

`O=C(C1CCCCC1)N(CCN1CCN(c2ccccc2OCCCF)CC1)c1ccccn1` came in with a Vocalization time in the assay filed under Rattus norvegicus [2] of 171 s. Further, the Decrease was found to be 0.5 °C in the assay listed under Rattus norvegicus [3], 0.6 °C in the assay filed under Rattus norvegicus [4] and 2.4 °C in the assay listed under Rattus norvegicus [5]. In assay [1], this compound returned a half-maximal inhibitory concentration (IC50) of 6.05 nM. Further, in the assay filed under Cavia porcellus, the Kb is 5.01 nM.

As for `O=C(C1CCCCC1)N(CCN1CCN(c2ccccc2O)CC1)c1ccccn1`, the Vocalization time in the assay listed under Rattus norvegicus [2] is given as 166 s. Moreover, the Decrease in the assay filed under Rattus norvegicus [3] is 0.3 °C; in the assay filed under Rattus norvegicus [4] it was 0.2 °C; in the assay filed under Rattus norvegicus [5] it was 0.6 °C. The same compound gave an IC50 in assay [1] of 2.1 nM. Further, in the assay listed under Cavia porcellus, the Kb is 10 nM.

Take `O=C(C1CCCCC1)N(CCN1CCN(c2ccccc2OS(=O)(=O)C(F)(F)F)CC1)c1ccccn1`: the Vocalization time in the assay filed under Rattus norvegicus [2] was 146 s. Moreover, the Decrease in the assay filed under Rattus norvegicus [3] was 0.3 °C; in the assay filed under Rattus norvegicus [4], 0 °C; in the assay filed under Rattus norvegicus [5], 1.5 °C. In addition, in assay [1], the 50% inhibitory concentration (IC50) amounted to 36 nM. Besides, the Kb in the assay filed under Cavia porcellus is 20 nM.

As to `CS(=O)(=O)Oc1ccccc1N1CCN(CCN(C(=O)C2CCCCC2)c2ccccn2)CC1`, the Vocalization time in the assay filed under Rattus norvegicus [2] turned out to be 167 s. Besides, the Decrease in the assay filed under Rattus norvegicus [3] turned out to be 0.4 °C; in the assay filed under Rattus norvegicus [4] it was 0.5 °C; in the assay listed under Rattus norvegicus [5], 1.1 °C. This compound also came in with a concentration for half-maximal inhibition (IC50) in assay [1] of 7.25 nM. Further, the Kb in the assay listed under Cavia porcellus was 2.51 nM.

In turn, `CCCN(CCC)C1CCc2cccc(O)c2C1` (stereo not drawn) [8-OH-DPAT] had a Vocalization time in the assay filed under Rattus norvegicus [2] of 4.9 s. The compound further registered a Decrease in the assay listed under Rattus norvegicus [5] of 2 °C.

Compound `O=C(C1CCCCC1)N(CCN1CCN(c2ccccc2OCCF)CC1)c1ccccn1` had a Vocalization time in the assay listed under Rattus norvegicus [2] of 164 s. For the same compound, the figures for the Decrease in the assay filed under Rattus norvegicus [3], in the assay filed under Rattus norvegicus [4] and in the assay filed under Rattus norvegicus [5] were 0.4 °C, 1.1 °C and 1.8 °C, respectively. In addition, in assay [1], inhibition was half-maximal at 1.55 nM (IC50). Besides, the Kb in the assay filed under Cavia porcellus was 3.16 nM.

The values above are taken from ChEMBL document CHEMBL1133581, “Synthesis and in vitro and in vivo functional studies of ortho-substituted phenylpiperazine and N-substituted 4-N-(o-methoxyphenyl)aminopiperidine analogues of WAY100635” (J Med Chem, 2000).
